This passage reports T/C results from PubChem BioAssay AID330 (DTP/NCI, 2004).

Several values for one entry are separate records, joined by “and”; a condition that tells them apart may be missing. Identical values can stand only once. Inconclusive results and toxic doses are left out.

In the experiment the test system is P388 leukemia ip, CD2F1 mice, survival T/C. Briefly: NCI In Vivo Anticancer Drug Screen. Data for tumor model P388 Leukemia (intraperitoneal) in CD2F1 (CDF1) mice. To be noted: endpoint: median survival time, higher = longer survival. The procedure, abridged: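 Mice carrying the transplanted tumor received test compound or vehicle. Survival was recorded in each group, and the value is the treated-group measurement divided by that of the vehicle-treated control group.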

The mark [1] stands for this setting: dose: 60.0 mg/kg/injection, schedule: Q01DX005 (ip), vehicle: saline with Tween-80.
[2] abbreviates: dose: 120.0 mg/kg/injection, schedule: Q01DX005 (ip), vehicle: saline with Tween-80.
The mark [3] stands for this setting: dose: 240.0 mg/kg/injection, schedule: Q01DX005 (ip), vehicle: saline with Tween-80.
The mark [4] stands for this setting: dose: 50.0 mg/kg/injection, schedule: Q01DX009 (ip), vehicle: saline with Tween-80.
Where [5] appears, read: dose: 100.0 mg/kg/injection, schedule: Q04DX003 (ip), vehicle: saline with Tween-80.
[6] abbreviates: dose: 50.0 mg/kg/injection, schedule: Q01DX009 (ip), vehicle: Klucel (hydroxypropylcellulose) (HPC).
Setting [7] is: dose: 100.0 mg/kg/injection, schedule: Q01DX009 (ip), vehicle: Klucel (hydroxypropylcellulose) (HPC).
The mark [8] stands for this setting: dose: 200.0 mg/kg/injection, schedule: Q01DX009 (ip), vehicle: Klucel (hydroxypropylcellulose) (HPC).
[9] abbreviates: dose: 50.0 mg/kg/injection, schedule: Q01DX005 (ip), vehicle: saline.
Setting [10] is: dose: 100.0 mg/kg/injection, schedule: Q01DX005 (ip), vehicle: saline.
[11] abbreviates: dose: 200.0 mg/kg/injection, schedule: Q01DX005 (ip), vehicle: saline.

As to `Nc1ncnc2c1ccn2C1OC(CO)C(O)C1O` (centres undefined), the T/C by setting is: (dose: 0.44 mg/kg/injection, schedule: Q01DX001 (ip), vehicle: saline) 120 % of control; (dose: 0.5 mg/kg/injection, schedule: Q01DX009 (ip), vehicle: water) 113 % of control; (dose: 0.88 mg/kg/injection, schedule: Q01DX001 (ip), vehicle: saline) 110 % of control; (dose: 8.0 mg/kg/injection, schedule: Q01DX010 (sc), vehicle: saline) 105 % of control; (dose: 16.0 mg/kg/injection, schedule: Q01DX010 (sc), vehicle: saline) 110 % of control; (dose: 55.0 micrograms/kg/injection, schedule: Q07DX Z (ip), vehicle: saline) 90 % of control. Also, the T/C runs as follows: (dose: 110.0 micrograms/kg/injection, schedule: Q07DX Z (ip), vehicle: saline) 105 % of control; (dose: 220.0 micrograms/kg/injection, schedule: Q07DX Z (ip), vehicle: saline) 105 % of control; (dose: 440.0 micrograms/kg/injection, schedule: Q07DX Z (ip), vehicle: saline) 105 % of control.
`Cc1ccc(NC(=O)CCCC(=O)C(C#N)c2nc3ccccc3s2)cc1C` (centres undefined): the T/C is 100 % of control under setting [1], 98 % of control under setting [2] and 98 % of control under setting [3].
For `CC(=O)Oc1ccc(C2COc3cc(OC(C)=O)c(OC(C)=O)cc3C2)cc1` (centres undefined), the T/C is, setting by setting: under setting [1], 104 % of control; under setting [2], 104 % of control; under setting [3], 104 % of control.
`CNCCCC12CC(c3ccccc31)c1ccccc12`: under setting [4], the T/C was 94 % of control.
For `O=C1CCc2nc(-c3ccccc3)ncc21`, the T/C by setting is: under setting [5], 99 % of control; (dose: 200.0 mg/kg/injection, schedule: Q04DX003 (ip), vehicle: saline with Tween-80) 89 % of control; (dose: 400.0 mg/kg/injection, schedule: Q04DX003 (ip), vehicle: saline with Tween-80) 88 % of control.
For `C[C@H]1C(=O)CCC2[C@]3(C)CCC4(CO)[C@@H]5CC(C)(C)C(=O)C[C@]5(C)CC[C@]4(C)C3CC[C@@]21C` (some centres undefined), the T/C is, setting by setting: (dose: 7.75 mg/kg/injection, schedule: Q01DX005 (ip), vehicle: Klucel (hydroxypropylcellulose) (HPC)) 98 % of control; (dose: 15.5 mg/kg/injection, schedule: Q01DX005 (ip), vehicle: Klucel (hydroxypropylcellulose) (HPC)) 91 % of control; (dose: 31.0 mg/kg/injection, schedule: Q01DX005 (ip), vehicle: Klucel (hydroxypropylcellulose) (HPC)) 89 % of control.
Consider `C=C(C(=O)OC)C1C=CCC1` (centres undefined), for which the T/C by setting is: (dose: 12.5 mg/kg/injection, schedule: Q01DX009 (ip), vehicle: distilled water + Tween-80) 100 % of control; (dose: 25.0 mg/kg/injection, schedule: Q01DX009 (ip), vehicle: distilled water + Tween-80) 100 % of control; (dose: 50.0 mg/kg/injection, schedule: Q01DX009 (ip), vehicle: distilled water + Tween-80) 111 % of control; (dose: 100.0 mg/kg/injection, schedule: Q01DX009 (ip), vehicle: distilled water + Tween-80) 101 % of control; (dose: 200.0 mg/kg/injection, schedule: Q01DX009 (ip), vehicle: distilled water + Tween-80) 86 % of control.
On to `O=c1[nH]c2cc([N+](=O)[O-])ccc2o1`, for which the T/C reads like this: under setting [6], 102 % of control; under setting [7], 105 % of control; under setting [8], 105 % of control.
In the case of `O=[N+]([O-])c1ccc(/C=C/C=C/c2ccc(S(=O)(=O)F)cc2)c(Cl)c1`, the T/C was 93 % of control under setting [6], 93 % of control under setting [7] and 97 % of control under setting [8].
In the case of `O=C1[C@@H]2CCC[C@@H]2[C@H]2CCC[C@@H]12`, the T/C (dose: 100.0 mg/kg/injection, schedule: Q01DX001 (ip), vehicle: saline with Tween-80) was 95 % of control; the T/C (dose: 200.0 mg/kg/injection, schedule: Q01DX001 (ip), vehicle: saline with Tween-80) is 102 % of control; the T/C (dose: 400.0 mg/kg/injection, schedule: Q01DX001 (ip), vehicle: saline with Tween-80) was 89 % of control.
In the case of `CCC1=C[C@H]2CN(CCc3c([nH]c4ccccc34)[C@@](C(=O)OC)(c3cc4c(cc3OC)N(C)[C@H]3[C@@](O)(C(=O)NCCSC)[C@H](O)[C@]5(CC)C=CCN6CC[C@]43[C@@H]65)C2)C1`, the T/C was 117 % of control (dose: 0.5 mg/kg/injection, schedule: Q01DX001 (ip), vehicle: water); 118 % of control (dose: 2.0 mg/kg/injection, schedule: Q01DX001 (ip), vehicle: water); 154 % of control and 168 % of control (dose: 16.0 mg/kg/injection, schedule: Q01DX001 (ip), vehicle: water); 191 % of control (dose: 32.0 mg/kg/injection, schedule: Q01DX001 (ip), vehicle: water).
`O=c1[nH]c(=O)n(-c2cccc3ccccc23)c(=O)n1-c1cccc2ccccc12`: the T/C was 100 % of control under setting [6], 108 % of control under setting [7] and 105 % of control under setting [8].
`CCOC(=O)[C@]1(Br)CC[C@]1(Br)C(=O)OCC`: the T/C is, setting by setting: under setting [4], 106 % of control and 121 % of control; (dose: 100.0 mg/kg/injection, schedule: Q01DX009 (ip), vehicle: saline with Tween-80) 112 % of control and 114 % of control; (dose: 200.0 mg/kg/injection, schedule: Q01DX009 (ip), vehicle: saline with Tween-80) 117 % of control and 122 % of control; (dose: 400.0 mg/kg/injection, schedule: Q01DX009 (ip), vehicle: saline with Tween-80) 123 % of control.
Regarding `CS(=O)(=O)OC1C(COC(=O)c2ccccc2)OC(n2ccc(=O)[nH]c2=O)C1O` (centres undefined), the T/C reads like this: under setting [9], 100 % of control; under setting [10], 101 % of control; under setting [11], 101 % of control.
Regarding `Oc1cc2c(cc1C1COc3cc(OCc4ccccc4)ccc3C1)OCO2` (centres undefined), the T/C by setting is: (dose: 50.0 mg/kg/injection, schedule: Q01DX001 (ip), vehicle: Klucel (hydroxypropylcellulose) (HPC)) 95 % of control; (dose: 100.0 mg/kg/injection, schedule: Q01DX001 (ip), vehicle: Klucel (hydroxypropylcellulose) (HPC)) 90 % of control; (dose: 200.0 mg/kg/injection, schedule: Q01DX001 (ip), vehicle: Klucel (hydroxypropylcellulose) (HPC)) 93 % of control.
As to `Cc1cccc(NN=O)n1`, the T/C is, setting by setting: (dose: 1.5 mg/kg/injection, schedule: Q01DX009 (ip), vehicle: water) 98 % of control; (dose: 1.56 mg/kg/injection, schedule: Q01DX009 (ip), vehicle: water) 99 % of control; (dose: 3.0 mg/kg/injection, schedule: Q01DX009 (ip), vehicle: water) 107 % of control; (dose: 3.12 mg/kg/injection, schedule: Q01DX009 (ip), vehicle: water) 115 % of control; (dose: 6.25 mg/kg/injection, schedule: Q01DX009 (ip), vehicle: water) 120 % of control; (dose: 25.0 mg/kg/injection, schedule: Q01DX009 (ip), vehicle: water) 163 % of control.
As for `CN1CCN(CCCNN)CC1`, the T/C runs as follows: under setting [9], 93 % of control; under setting [10], 101 % of control; under setting [11], 101 % of control.
For `Cn1c(=O)c2[nH]c(C(C)(C)O)nc2n(C)c1=O`, the T/C under setting [1] was 101 % of control, the T/C under setting [2] is 104 % of control and the T/C under setting [3] was 101 % of control.
Regarding `Clc1ccc(-c2csc3nc(-c4cccs4)nn23)cc1`, the T/C runs as follows: (dose: 30.0 mg/kg/injection, schedule: Q01DX005 (ip), vehicle: Klucel (hydroxypropylcellulose) (HPC)) 97 % of control; (dose: 60.0 mg/kg/injection, schedule: Q01DX005 (ip), vehicle: Klucel (hydroxypropylcellulose) (HPC)) 95 % of control; (dose: 120.0 mg/kg/injection, schedule: Q01DX005 (ip), vehicle: Klucel (hydroxypropylcellulose) (HPC)) 95 % of control; (dose: 240.0 mg/kg/injection, schedule: Q01DX005 (ip), vehicle: Klucel (hydroxypropylcellulose) (HPC)) 93 % of control.
As to `Nc1nc(N)c2cc(CCc3ccccc3)ccc2n1`, the T/C was 95 % of control (dose: 6.25 mg/kg/injection, schedule: Q01DX009 (ip), vehicle: saline with Tween-80); 109 % of control (dose: 12.5 mg/kg/injection, schedule: Q01DX009 (ip), vehicle: saline with Tween-80); 90 % of control (dose: 25.0 mg/kg/injection, schedule: Q01DX009 (ip), vehicle: saline with Tween-80); 104 % of control (dose: 50.0 mg/kg/injection, schedule: Q04DX003 (ip), vehicle: saline with Tween-80); 109 % of control under setting [5].
